Reference: PMC11287240 (RSC Advances, 2024)
Where two headings read alike, the source gives them in different places.

Experiments:
hBACE 1 = hBACE 1 (Homo sapiens, UniProt P56817); assay: BACE 1 FRET inhibition assay; assay type: biochemical; details: human BACE 1
[1] = target: EeAChE (Electrophorus electricus acetylcholinesterase) (Electrophorus electricus, UniProt O42275); assay: AChE inhibition assay; assay type: biochemical, electric eel
[2] = read-out: hBACE 1 IC50 (μM) ± SD, mean ± SD, n = 3, FRET assay
[3] = read-out: EeAChE IC50 (μM) ± SD, mean ± SD, n = 3, AChE from electric eel, Ellman assay
[4] = hBACE 1 IC50 (μM) ± SD, mean ± SD, n = 3, FRET assay

Sequence of EeAChE (Electrophorus electricus acetylcholinesterase) (O42275 24-633): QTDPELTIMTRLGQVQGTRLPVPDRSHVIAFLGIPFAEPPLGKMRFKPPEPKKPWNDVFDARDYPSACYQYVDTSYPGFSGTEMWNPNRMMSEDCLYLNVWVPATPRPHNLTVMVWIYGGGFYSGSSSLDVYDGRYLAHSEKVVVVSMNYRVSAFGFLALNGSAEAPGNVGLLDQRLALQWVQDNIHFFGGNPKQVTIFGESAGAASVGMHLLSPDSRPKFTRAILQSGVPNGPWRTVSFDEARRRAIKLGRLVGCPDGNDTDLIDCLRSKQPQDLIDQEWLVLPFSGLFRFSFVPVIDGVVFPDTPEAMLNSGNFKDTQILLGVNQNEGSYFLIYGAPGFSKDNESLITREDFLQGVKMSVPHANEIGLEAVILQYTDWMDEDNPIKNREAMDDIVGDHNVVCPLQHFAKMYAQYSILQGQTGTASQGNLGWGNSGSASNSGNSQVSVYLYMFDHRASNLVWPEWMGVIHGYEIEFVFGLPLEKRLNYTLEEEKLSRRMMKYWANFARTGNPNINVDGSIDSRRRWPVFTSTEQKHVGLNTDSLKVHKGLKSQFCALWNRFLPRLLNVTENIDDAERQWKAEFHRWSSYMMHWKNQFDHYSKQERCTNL
Sequence of hBACE 1 (P56817 46-501): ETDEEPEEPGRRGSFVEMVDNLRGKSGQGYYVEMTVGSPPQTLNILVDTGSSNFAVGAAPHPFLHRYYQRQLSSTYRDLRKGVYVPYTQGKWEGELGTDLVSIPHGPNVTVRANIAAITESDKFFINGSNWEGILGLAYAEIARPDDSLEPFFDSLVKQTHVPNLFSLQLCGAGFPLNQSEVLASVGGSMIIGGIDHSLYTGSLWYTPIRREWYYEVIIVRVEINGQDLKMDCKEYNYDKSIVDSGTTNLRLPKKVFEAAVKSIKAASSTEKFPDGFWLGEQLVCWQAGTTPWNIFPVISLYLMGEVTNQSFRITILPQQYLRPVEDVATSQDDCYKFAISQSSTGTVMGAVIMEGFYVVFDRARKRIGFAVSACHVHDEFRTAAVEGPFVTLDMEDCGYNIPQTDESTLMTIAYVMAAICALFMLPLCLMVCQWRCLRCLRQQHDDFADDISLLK

Compound | hBACE 1 PIC50 (hBACE 1) [µM] | IC50 (hBACE 1; [2]) [µM] | EeAChE PIC50 ([1]; AChE from electric eel) [µM] | IC50 [1, 3] [µM] | IC50 (hBACE 1; [4]) [µM] | IC50 (hBACE 1; hBACE 1 PIC50 (μM)) [µM] | IC50 [1] [µM]
[H]/N=C(/N)NN=C(/C=C/c1ccc(C(F)(F)F)cc1)c1cn(Cc2ccc(C(F)(F)F)cc2)c2ccccc12 [Compound 3a, (Z)-2-((E)-1-(1-(4-(Trifluoromethyl)benzyl)-1H-indol-3-yl)-3-(4-(trifluoromethyl)phenyl)allylidene)hydrazine-1-carboximidamide] | 3.65 | 222.3 ± 0.49 | 4.42 | 38.4 ± 3.46 | – | – | –
[H]/N=C(/N)NN=C(/C=C/c1ccc(C)cc1)c1cn(Cc2ccccc2)c2ccccc12 [Compound 1k, (Z)-2-((E)-1-(1-Benzyl-1H-indol-3-yl)-3-(p-tolyl)allylidene)hydrazine-1-carboximidamide] | – | – | – | – | 132.1 ± 0.28 | 132 | 186 ± 2.69
[H]/N=C(/N)NN=C(/C=C/c1ccccc1)c1cn(Cc2ccc(F)cc2C(F)(F)F)c2ccccc12 [Compound 2d, (Z)-2-((E)-1-(1-(4-Fluoro-2-(trifluoromethyl)benzyl)-1H-indol-3-yl)-3-phenylallylidene)hydrazine-1-carboximidamide] | – | – | – | – | 140.9 ± 1.06 | 141 | 169 ± 1.91
[H]/N=C(/N)NN=C(/C=C/c1ccc(F)cc1F)c1cn(Cc2ccccc2)c2ccccc12 [Compound 1m, (Z)-2-((E)-1-(1-Benzyl-1H-indol-3-yl)-3-(2,4-difluorophenyl)allylidene)hydrazine-1-carboximidamide] | 4.89 | 12.8 ± 0.5 | 3.83 | 148 ± 3.11 | – | – | –
[H]/N=C(/N)NN=C(/C=C/c1ccccc1)c1cn(Cc2ccc(Cl)cc2)c2ccccc12 [Compound 2f, (Z)-2-((E)-1-(1-(4-Chlorobenzyl)-1H-indol-3-yl)-3-phenylallylidene)hydrazine-1-carboximidamide] | – | – | – | – | 213 ± 2.26 | 214 | 42.8 ± 2.79
[H]/N=C(/N)NN=C(/C=C/c1cccc(OC)c1OC)c1cn(Cc2ccccc2)c2ccccc12 [Compound 1p, (Z)-2-((E)-1-(1-Benzyl-1H-indol-3-yl)-3-(2,3-dimethoxyphenyl)allylidene)hydrazine-1-carboximidamide] | – | – | – | – | 134 ± 1.42 | 135 | 48.6 ± 1.51
[H]/N=C(/N)NN=C(/C=C/c1ccccc1)c1cn(Cc2ccccc2F)c2ccccc12 [Compound 2h, (Z)-2-((E)-1-(1-(2-Fluorobenzyl)-1H-indol-3-yl)-3-phenylallylidene)hydrazine-1-carboximidamide] | – | – | – | – | 143.2 ± 0.21 | 145 | 62.86 ± 0.62
[H]/N=C(/N)NN=C(/C=C/c1cc(OC)ccc1OC)c1cn(Cc2ccccc2)c2ccccc12 [Compound 1j, (Z)-2-((E)-1-(1-Benzyl-1H-indol-3-yl)-3-(2,5-dimethoxyphenyl)allylidene)hydrazine-1-carboximidamide] | – | – | – | – | 72.2 ± 1.76 | 72.4 | 61 ± 2.29
[H]/N=C(/N)NN=C(/C=C/c1ccc(C(C)(C)C)cc1)c1cn(Cc2ccccc2)c2ccccc12 [Compound 1b, (Z)-2-((E)-1-(1-Benzyl-1H-indol-3-yl)-3-(4-(tert-butyl)phenyl)allylidene)hydrazine-1-carboximidamide] | – | – | – | – | 97.4 ± 1.36 | 97.7 | 42.9 ± 0.48
[H]/N=C(/N)NN=C(/C=C/c1ccc(N(C)C)cc1)c1cn(Cc2ccccc2)c2ccccc12 [Compound 1g, (Z)-2-((E)-1-(1-Benzyl-1H-indol-3-yl)-3-(4-(dimethylamino)phenyl)allylidene)hydrazine-1-carboximidamide] | – | – | – | – | 89 ± 2.29 | 89.1 | 78.2 ± 2.28
[H]/N=C(/N)NN=C(/C=C/c1ccc(C#N)cc1)c1cn(Cc2ccccc2)c2ccccc12 [Compound 1l, (Z)-2-((E)-1-(1-Benzyl-1H-indol-3-yl)-3-(4-cyanophenyl)allylidene)hydrazine-1-carboximidamide] | – | – | – | – | 9.38 ± 0.5 | 9.33 | 60.9 ± 2.53
[H]/N=C(/N)NN=C(/C=C/c1cccc(F)c1)c1cn(Cc2ccccc2)c2ccccc12 [Compound 1f, (Z)-2-((E)-1-(1-Benzyl-1H-indol-3-yl)-3-(3-fluorophenyl)allylidene)hydrazine-1-carboximidamide] | – | – | – | – | 88.59 ± 0.32 | 89.1 | 67 ± 1.95
[H]/N=C(/N)NN=C(/C=C/c1ccc(F)c(F)c1)c1cn(Cc2ccccc2)c2ccccc12 [Compound 1a, (Z)-2-((E)-1-(1-Benzyl-1H-indol-3-yl)-3-(3,4-difluorophenyl)allylidene)hydrazine-1-carboximidamide] | – | – | – | – | 72.11 ± 0.01 | 72.4 | 77.2 ± 2.24
[H]/N=C(/N)NN=C(/C=C/c1ccc(C(C)(C)C)cc1)c1cn(Cc2ccc(C(F)(F)F)cc2)c2ccccc12 [Compound 3k, (Z)-2-((E)-3-(4-(tert-Butyl)phenyl)-1-(1-(4-(trifluoromethyl)benzyl)-1H-indol-3-yl)allylidene)hydrazine-1-carboximidamide] | – | – | – | – | 139 ± 1.98 | 138 | 207 ± 7.64
[H]/N=C(/N)NN=C(/C=C/c1ccc(F)c(F)c1)c1cn(Cc2ccc(C(C)(C)C)cc2)c2ccccc12 [Compound 3d, (Z)-2-((E)-1-(1-(4-(tert-Butyl)benzyl)-1H-indol-3-yl)-3-(3,4-difluorophenyl)allylidene)hydrazine-1-carboximidamide] | 4.11 | 76.9 ± 2.38 | 3.71 | 195.9 ± 1.73 | – | – | –
[H]/N=C(/N)NN=C(/C=C/c1ccc(OC)c(OC)c1)c1cn(Cc2ccccc2)c2ccccc12 [Compound 1c, (Z)-2-((E)-1-(1-Benzyl-1H-indol-3-yl)-3-(3,4-dimethoxyphenyl)allylidene)hydrazine-1-carboximidamide] | – | – | – | – | 59.51 ± 0.21 | 58.9 | 77.1 ± 1.54
[H]/N=C(/N)NN=C(/C=C/c1ccc(C(C)(C)C)cc1)c1cn(Cc2ccc(Br)cc2)c2ccccc12 [Compound 3g, (Z)-2-((E)-1-(1-(4-Bromobenzyl)-1H-indol-3-yl)-3-(4-(tert-butyl)phenyl)allylidene)hydrazine-1-carboximidamide] | – | – | – | – | 178.2 ± 0.92 | 178 | 156 ± 2.62
[H]/N=C(/N)NN=C(/C=C/c1ccc(Cl)cc1)c1cn(Cc2ccccc2)c2ccccc12 [Compound 1q, (Z)-2-((E)-1-(1-Benzyl-1H-indol-3-yl)-3-(4-chlorophenyl)allylidene)hydrazine-1-carboximidamide] | – | – | – | – | 16.5 ± 0.39 | 16.6 | 82.6 ± 1.92
[H]/N=C(/N)NN=C(/C=C/c1ccc(C(C)(C)C)cc1)c1cn(Cc2ccc(C(C)(C)C)cc2)c2ccccc12 [Compound 3h, (Z)-2-((E)-1-(1-(4-(tert-Butyl)benzyl)-1H-indol-3-yl)-3-(4-(tert-butyl)phenyl)allylidene)hydrazine-1-carboximidamide] | – | – | – | – | 179.2 ± 0.78 | 178 | 55.7 ± 3.17
[H]/N=C(/N)NN=C(/C=C/c1cc(OC)ccc1OC)c1cn(Cc2ccc(CCCC)cc2)c2ccccc12 [Compound 3l, (Z)-2-((E)-1-(1-(4-Butylbenzyl)-1H-indol-3-yl)-3-(2,5-dimethoxyphenyl)allylidene)hydrazine-1-carboximidamide] | – | – | – | – | 196 ± 3.04 | 195 | 58.4 ± 0.91
[H]/N=C(/N)NN=C(/C=C/c1ccccc1)c1cn(Cc2cc(C(F)(F)F)cc(C(F)(F)F)c2)c2ccccc12 [Compound 2c, (Z)-2-((E)-1-(1-(3,5-Bis(trifluoromethyl)benzyl)-1H-indol-3-yl)-3-phenylallylidene)hydrazine-1-carboximidamide] | – | – | – | – | 70 ± 0.87 | 70.8 | 56.6 ± 0.98
[H]/N=C(/N)NN=C(/C=C/c1cccc(OCc2ccccc2)c1)c1cn(Cc2ccccc2)c2ccccc12 [Compound 1o, (Z)-2-((E)-1-(1-Benzyl-1H-indol-3-yl)-3-(3-(benzyloxy)phenyl)allylidene)hydrazine-1-carboximidamide] | – | – | – | – | 12.8 ± 0.42 | 12.9 | 126.6 ± 0.99
[H]/N=C(/N)NN=C(/C=C/c1ccccc1C)c1cn(Cc2ccccc2)c2ccccc12 [Compound 1r, (Z)-2-((E)-1-(1-Benzyl-1H-indol-3-yl)-3-(o-tolyl)allylidene)hydrazine-1-carboximidamide] | – | – | – | – | 206 ± 3.75 | 204 | 46.8 ± 1.83
[H]/N=C(/N)NN=C(/C=C/c1ccc(OCc2ccccc2)cc1)c1cn(Cc2cccc(OCc3ccccc3)c2)c2ccccc12 [Compound 3i, (Z)-2-((E)-1-(1-(3-(Benzyloxy)benzyl)-1H-indol-3-yl)-3-(4-(benzyloxy)phenyl)allylidene)hydrazine-1-carboximidamide] | – | – | – | – | 189 ± 1.91 | 191 | 26.99 ± 0.13
[H]/N=C(/N)NN=C(/C=C/c1ccccc1)c1cn(Cc2ccccc2C#N)c2ccccc12 [Compound 2e, (Z)-2-((E)-1-(1-(2-Cyanobenzyl)-1H-indol-3-yl)-3-phenylallylidene)hydrazine-1-carboximidamide] | – | – | – | – | 197 ± 2.42 | 195 | 44.02 ± 0.19
[H]/N=C(/N)NN=C(/C=C/c1ccccc1)c1cn(Cc2cccc(C#N)c2)c2ccccc12 [Compound 2j, (Z)-2-((E)-1-(1-(3-Cyanobenzyl)-1H-indol-3-yl)-3-phenylallylidene)hydrazine-1-carboximidamide] | – | – | – | – | 178.2 ± 0.92 | 178 | 75.91 ± 0.32
[H]/N=C(/N)NN=C(/C=C/c1ccc(OC)c(OC)c1)c1cn(Cc2cc(OC)cc(OC)c2)c2ccccc12 [Compound 3b, (Z)-2-((E)-1-(1-(3,5-Dimethoxybenzyl)-1H-indol-3-yl)-3-(3,4-dimethoxyphenyl)allylidene)hydrazine-1-carboximidamide] | – | – | – | – | 198 ± 3.18 | 200 | 22 ± 0.65
